Assay: recombinant UMI read abundance after kanamycin selection (control-corrected) (log10(CPM+1)); higher = more efficient recombination; extreme values may be limits of the assay; sequences stand for … in AGTGCAGAGAAAATCGGCCAGTTTTCTCTGCCTGCAGTCCGCATGCCGTGGGACCCCTTGGGTTCTAACCTGTTGCCTAGATTTATGCAGCGGACTGCCTTTCTCCCAAAGTGATAAACCGG…AGGTTGGTTTCACT; site = the 11-nt donor
In short: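 Reported values are log10(CPM+1) from a pooled Escherichia coli screen of donor and donor-binding-loop pairs for the IS621 bridge recombinase. Selection used IPTG (0.07 mM) plus kanamycin, against unselected plating, each in two replicates. Recombinant UMIs were amplified across the donor–target junction, sequenced, converted to CPM, averaged over replicates and scaled by control-derived factors.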
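Further: IS621 bridge recombinase in Escherichia coli cells against a fixed T5 target plasmid.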

Sequence | recombinant UMI read abundance (log10)
GATTATCCATGGACCGGTTTTCCCGGTAATCCGTATTTGGT (site GATTATCCTAA) | 0.017
GATTATCCATGGACCGGTTTTCCCGGTAATCCGTATTTGGT (site GATTATCCTAC) | 0.0163
GATTATCCATGGACCGGTTTTCCCGGTAATCCGTATTTGGT (site GATTATCCTAG) | 0
GATTATCCATGGACCGGTTTTCCCGGTAATCCGTATTTGGT (site GATTATCCTAT) | 0
GATTATCCATGGACCGGTTTTCCCGGTAATCCGTATTTGTT (site GATTATCCTAA) | 0.00783
GATTATCCATGGACCGGTTTTCCCGGTAATCCGTATTTGTT (site GATTATCCTAC) | 0
GATTATCCATGGACCGGTTTTCCCGGTAATCCGTATTTGTT (site GATTATCCTAG) | 0
GATTATCCATGGACCGGTTTTCCCGGTAATCCGTATTTGTT (site GATTATCCTAT) | 0
GATTGAACATGGACCGGTTTTCCCGGTAATCCGTATTTGAC (site GATTGAACTGT) | 0
GATTGAACATGGACCGGTTTTCCCGGTAATCCGTATTTGAC (site GATTGCACTGT) | 0.00522
GATTGAACATGGACCGGTTTTCCCGGTAATCCGTATTTGAC (site GATTGGACTGT) | 0.339
GATTGAACATGGACCGGTTTTCCCGGTAATCCGTATTTGAC (site GATTGTACTGT) | 0
GATTGTACATGGACCGGTTTTCCCGGTAATCCGTATTTGCG (site GATTGTACTCG) | 0.619
GATTGTACATGGACCGGTTTTCCCGGTAATCCGTATTTGGG (site GATTGTACTCC) | 0.0205
GATTGTCCATGGACCGGTTTTCCCGGTAATCCGTATTTGAT (site GATTGTCCTAT) | 1.17
GATTTTCCATGGACCGGTTTTCCCGGTAATCCGTATTTGCT (site GATTATCCTAG) | 0
GATTTTCCATGGACCGGTTTTCCCGGTAATCCGTATTTGCT (site GATTCTCCTAG) | 0
GATTTTCCATGGACCGGTTTTCCCGGTAATCCGTATTTGCT (site GATTGTCCTAG) | 0.014
GATTTTCCATGGACCGGTTTTCCCGGTAATCCGTATTTGCT (site GATTTTCCTAG) | 0
GCAAAGCCATGGACCGGTTTTCCCGGTAATCCGTATTTGGG (site GCAAAGCCTCC) | 0.00379
GCAAAGCCATGGACCGGTTTTCCCGGTAATCCGTATTTGGG (site GCCAAGCCTCC) | 0.00875
GCAAAGCCATGGACCGGTTTTCCCGGTAATCCGTATTTGGG (site GCGAAGCCTCC) | 0.00619
GCAAAGCCATGGACCGGTTTTCCCGGTAATCCGTATTTGGG (site GCTAAGCCTCC) | 0.0133

Sequence | recombinant UMI read abundance (log10)
GCAACATCATGGACCGGTTTTCCCGGTAATCCGTATTTGCC (site GCAACATCTGG) | 0.611
GCAAGAACATGGACCGGTTTTCCCGGTAATCCGTATTTGAG (site GCAAGAACTCT) | 2.56
GCAATAACATGGACCGGTTTTCCCGGTAATCCGTATTTGGT (site GCAATAACTAC) | 2.38
GCAATCGCATGGACCGGTTTTCCCGGTAATCCGTATTTGAG (site GCAATCGCTCT) | 2.29
GCACAGCCATGGACCGGTTTTCCCGGTAATCCGTATTTGTT (site GCACAGCCTAA) | 1.47
GCACCAACATGGACCGGTTTTCCCGGTAATCCGTATTTGCC (site GCACCAACTGG) | 0.762
GCACCGACATGGACCGGTTTTCCCGGTAATCCGTATTTGAA (site GCACCGACTTT) | 0.965
GCACGAACATGGACCGGTTTTCCCGGTAATCCGTATTTGTC (site ACACGAACTGA) | 1.48
GCACGAACATGGACCGGTTTTCCCGGTAATCCGTATTTGTC (site CCACGAACTGA) | 2.19
GCACGAACATGGACCGGTTTTCCCGGTAATCCGTATTTGTC (site GCACGAACTGA) | 2.56
GCACGAACATGGACCGGTTTTCCCGGTAATCCGTATTTGTC (site TCACGAACTGA) | 0.552
GCACGTGCATGGACCGGTTTTCCCGGTAATCCGTATTTGGC (site GCACGTGCTGC) | 2.23
GCACTCTCATGGACCGGTTTTCCCGGTAATCCGTATTTGGG (site GCACTCTCTCC) | 0.647
GCAGAGTCATGGACCGGTTTTCCCGGTAATCCGTATTTGTA (site GCAGAGTCTTA) | 3.17
GCAGATCCATGGACCGGTTTTCCCGGTAATCCGTATTTGTC (site GCAGATCCTGA) | 0
GCAGCGTCATGGACCGGTTTTCCCGGTAATCCGTATTTGGA (site GCAGCGTCTTC) | 2.37
GCAGGCCCATGGACCGGTTTTCCCGGTAATCCGTATTTGCC (site GCAGGCCCTGG) | 0.86
GCAGTGACATGGACCGGTTTTCCCGGTAATCCGTATTTGCG (site GCAGTGACTCG) | 2.18
GCAGTTTCATGGACCGGTTTTCCCGGTAATCCGTATTTGCA (site GCAGTTTCTTG) | 2.59
GCATACTCATGGACCGGTTTTCCCGGTAATCCGTATTTGCA (site ACATACTCTTG) | 2.41
GCATACTCATGGACCGGTTTTCCCGGTAATCCGTATTTGCA (site CCATACTCTTG) | 2.9
GCATACTCATGGACCGGTTTTCCCGGTAATCCGTATTTGCA (site GCATACTCTTG) | 2.96
GCATACTCATGGACCGGTTTTCCCGGTAATCCGTATTTGCA (site TCATACTCTTG) | 2.61

Sequence | recombinant UMI read abundance (log10)
GCATAGTCATGGACCGGTTTTCCCGGTAATCCGTATTTGTT (site GCATAGTCTAA) | 3.29
GCATCGGCATGGACCGGTTTTCCCGGTAATCCGTATTTGAC (site GCATCGGCTGT) | 2.09
GCATGCCCATGGACCGGTTTTCCCGGTAATCCGTATTTGAT (site GCATGCCCTAT) | 0.197
GCATGCCCATGGACCGGTTTTCCCGGTAATCCGTATTTGAT (site GCCTGCCCTAT) | 0.226
GCATGCCCATGGACCGGTTTTCCCGGTAATCCGTATTTGAT (site GCGTGCCCTAT) | 0.0164
GCATGCCCATGGACCGGTTTTCCCGGTAATCCGTATTTGAT (site GCTTGCCCTAT) | 0.0139
GCATGGCCATGGACCGGTTTTCCCGGTAATCCGTATTTGCA (site GAATGGCCTTG) | 0
GCATGGCCATGGACCGGTTTTCCCGGTAATCCGTATTTGCA (site GCATGGCCTTG) | 0
GCATGGCCATGGACCGGTTTTCCCGGTAATCCGTATTTGCA (site GGATGGCCTTG) | 0.0185
GCATGGCCATGGACCGGTTTTCCCGGTAATCCGTATTTGCA (site GTATGGCCTTG) | 0.0194
GCATTACCATGGACCGGTTTTCCCGGTAATCCGTATTTGTC (site GCATTACCTGA) | 0
GCCAACGCATGGACCGGTTTTCCCGGTAATCCGTATTTGAA (site GCCAACGCTTT) | 1.63
GCCAAGGCATGGACCGGTTTTCCCGGTAATCCGTATTTGAG (site GCCAAGGCTCT) | 1.49
GCCACGCCATGGACCGGTTTTCCCGGTAATCCGTATTTGAA (site GCCACGCCTTA) | 0.00688
GCCACGCCATGGACCGGTTTTCCCGGTAATCCGTATTTGAA (site GCCACGCCTTC) | 0.0229
GCCACGCCATGGACCGGTTTTCCCGGTAATCCGTATTTGAA (site GCCACGCCTTG) | 0
GCCACGCCATGGACCGGTTTTCCCGGTAATCCGTATTTGAA (site GCCACGCCTTT) | 0.0176
GCCACGCCATGGACCGGTTTTCCCGGTAATCCGTATTTGCA (site GCCACGCCTTA) | 0
GCCACGCCATGGACCGGTTTTCCCGGTAATCCGTATTTGCA (site GCCACGCCTTC) | 0.0237
GCCACGCCATGGACCGGTTTTCCCGGTAATCCGTATTTGCA (site GCCACGCCTTG) | 1.36
GCCACGCCATGGACCGGTTTTCCCGGTAATCCGTATTTGCA (site GCCACGCCTTT) | 0.0202
GCCACGCCATGGACCGGTTTTCCCGGTAATCCGTATTTGGA (site GCCACGCCTTA) | 0.00593
